Results on two molecules are retold here after ChEMBL document CHEMBL1201862, “PubChem BioAssay data set” (2004).

Common to all, as to experiment: growth of human tumour cells (NCI), 48 h
Test [1] has as its system NCI-H226.
The test system of test [2] is MDA-MB-435.
Test [3] relates to SN12C.
The test system of test [4] is U-251.
Test [5] deals with 786-0.
For test [6], the system named is HCC 2998.
The test system of test [7] is ACHN.
Test [8] relates to OVCAR-4.
The test system of test [9] is TK-10.
Test [10] concerns T47D.
Test [11] has as its system M14.
Test [12] has as its system NCI/ADR-RES.
The test system of test [13] is CCRF-CEM.
In test [14] the test system is LOX IMVI.
For test [15], the system named is HOP-92.
Test [16] concerns SF-539.
Test [17] relates to NCI-H23.
The subject of test [18] is HL-60.
In test [19] the test system is DU-145.
Test [20] deals with UACC-62.

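Cultured in 96-well plates, cells were exposed to test compound for 48 hours across five concentrations. GI50 = concentration required for 50% inhibition of growth.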 Activity calls are given as the source filed them. Cut-off read from the data, not from the text of the source: active = GI50 up to about 1.1 µM and inactive = higher. Some results are limits rather than exact numbers.

Take `C[C@]12CCC(=O)C=C1CC[C@@H]1[C@@H]2[C@@H](O)C[C@@]2(C)[C@H]1CC[C@]2(O)C(=O)CO` [HYDROCORTISONE]: the GI50 in [1] is > 100 µM (inactive); in test [2] it was > 100 µM (inactive); in test [3] it was 31.8 µM (inactive); in [4], > 100 µM (inactive); in test [5], > 100 µM (inactive); in test [6], > 100 µM (inactive). For the same molecule, the GI50 in test [7], in test [8], in test [9], in test [10], in [11] and in test [12] was > 100 µM (inactive) each time. Also, the GI50 in test [13] is 18.7 µM (inactive); in test [14], > 100 µM (inactive); in test [15], > 100 µM (inactive); in test [16] it was > 100 µM (inactive); in [17], > 100 µM (inactive); in test [18], > 100 µM (inactive). In addition, the GI50 in [19] and in [20] was > 100 µM (inactive) each time.
For `C=C(C)[C@H]1Cc2c(ccc3c2O[C@@H]2COc4cc(OC)c(OC)cc4[C@@H]2C3=O)O1` [ROTENONE], the GI50 was 0.177 µM (active) in test [1]; 0.0206 µM (active) in [2]; 0.404 µM (active) in test [3]; 0.224 µM (active) in [4]; 0.236 µM (active) in test [5]; 0.316 µM (active) in test [6]. Also, the GI50 is 0.0522 µM (active) in test [7]; 0.577 µM (active) in [8]; 0.229 µM (active) in [9]; 0.0989 µM (active) in test [10]; 0.21 µM (active) in test [11]; 0.0635 µM (active) in test [12]. Further, the GI50 in test [13] is 0.951 µM (active); in test [14] it was 0.0624 µM (active); in [15], 0.116 µM (active); in [16], 0.128 µM (active); in [17], 0.0258 µM (active); in [18], 0.0611 µM (active). Moreover, the figures for the GI50 in [19] and in test [20] were 0.133 µM (active) and 0.0597 µM (active), respectively.
